# Source: patent US5620960A, “Use of D-allose as an immunosuppressive agent” (UOP, priority 1994, dated 1997)
# Entries after “also recorded” stand apart in the source; their conditions may differ.
# Assays:
# major tissues and organs = experiment: 28-day rat gavage study: Anatomic Pathology (necropsy and histopathology); format: in vivo, rat (Crl:CD®BR); details: 28 days gavage, listed organs
# Method: (§1) D-allose or deionized water was administered to 15 male and 15 female rats (Crl:CD®BR rats approximately 4 weeks of age from Charles River Laboratories) by gavage once daily for 28 days at dosage levels of D-allose of 3.1 and 5.1 g/Kg/day.
# (§2) Each rat was observed twice daily for mortality, morbidity and overt signs of toxicity. Detailed observations were performed once during each study week. Individual body weights, food consumption, food efficiency and water consumption were recorded daily. Hematology, biochemistry and urinalysis evaluations were conducted on all male and female animals during the last week of study. At study termination, all animals were euthanized. […] A complete set of major tissues and organs was harvested and selected organ weights were determined. Protocol-specified tissues were processed histologically and microscopic examination was conducted.
# Balb cells = format: cell-based
# Excerpt: 4) in vitro transformation of Balb cells;
# [1] = rat, in vivo
# Excerpt: (§3) This study was patterned after that Example 1 where a satellite group of animals received radiolabeled D-allose to establish excretion routes. On day 28, the animals in the satellite groups (5 controls, 5 males and 5 females) received a single dose of [^14 C]D-allose for-study days 1-28 at the same dose concentration as the non-radiolabeled material except for the "Control Satellite Group" which received a single high dose containing radiolabeled D-allose.
# (§4) On days 1-27, all control group animals (main and satellite) received deionized water at the same dosage volume as the test animals. However, on day 28 the satellite control animals became "Unadapted High Dose Test Animals" in that they received a high dose (5.1 g/kg) of radiolabeled D-allose. In this manner the "Unadapted High Dose Test Animals" could be directly compared to the multiple high dose animals which were adapted by administration of the high dose for 28 days.
# HPLC (High Pressure Liquid Chromatography) of urine from treated animals was compared with C^14 radiolabeled D-allose spiked urine from control animals.
# [2] = 28-day rat gavage study: Biochemistry and urinalysis; format: in vivo, rat (Crl:CD®BR); details: 28 days
# Method: as §1, §2
# (§5) Clinical laboratory studies were conducted on all main animals at termination of study. Blood samples were obtained from the orbital sinus following an overnight fasting period in which water was available. Urine was collected during the fasting period.
# human lymphocytes = format: cell-based
# Excerpt: 5) sister chromatid exchange in human lymphocytes with and without activation.
# salmonella = experiment: salmonella/mammalian--microsome reverse mutation assay; format: cell-based
# Excerpt: 1) salmonella/mammalian--microsome reverse mutation assay;
# [3] = tested on: segmented neutrophils, leukocytes, erythrocytes, platelets; experiment: 28-day rat gavage study: Hematology (blood cell counts); format: in vivo, rat (Crl:CD®BR); details: for Segmented Neutrophils (mean): terminal (28 days); for Segmented Neutrophils (mean) / Band Neutrophils (mean) / Basophils (mean) / Other Cells (mean) / Eosinophils (mean) / Monocytes (mean) / Erythrocytes (mean) / Leukocytes (mean) / Platelets (mean) / Lymphocytes (mean): N 5; for Band Neutrophils (mean) / Basophils (mean) / Other Cells (mean) / Eosinophils (mean) / Monocytes (mean) / Erythrocytes (mean) / Leukocytes (mean) / Platelets (mean) / Lymphocytes (mean): terminal; for Band Neutrophils (mean) / Basophils (mean) / Other Cells (mean): control 0.0; for Leukocytes (mean): control 9.6; for Platelets (mean): p ≤ 0.01; for Lymphocytes (mean): control 7.4
# Method: as §1, §2, §5
# (§6) As a result, bone marrow smears were examined for all animals.
# Male Rats = experiment: Acute Oral Toxicity Study in Male Rats; format: in vivo, rat
# Excerpt: Acute Oral Toxicity Study in Male Rats
# [4] = D-allose Excretion Routes ([^14 C]D-allose, liquid scintillation counting); format: in vivo, rat
# Excerpt: as §3, §4
# Each rat was observed twice daily for mortality, morbidity and overt signs of toxicity. Detailed observations were performed once during each study week. Individual body weights, food consumption, food efficiency and water consumption were recorded daily. […] Feces samples were collected at 24, 48, 72 and 96 hours after radiolabeled dosing from the satellite group animals. Duplicate aliquots of expired air solution, urine, feces and cage wash were analyzed by liquid scintillation counting (LSC). At study termination, all animals were euthanized. The carcasses from the satellite groups were analyzed for radioactive content only.
# water solubility = format: physicochemical
# Crl:CD®BR rats = tested on: Crl:CD®BR rats; parameters: species or system rat (Crl:CD®BR); details: rat, in vivo
# Method: as §1, §2
# The rats were observed twice daily for signs of overt toxicity at the times of the morbidity/mortality checks. Detailed observations were conducted once each study week during the 28 days of the study.
# Individual body weights were recorded daily for the 28 days of the study.
# For the first 28 days of the study, individual food consumption was recorded daily and food efficiency was calculated. […] Increases and decreases occurred in food efficiency values for males and females at all treatment levels, with no obvious trend.
# Individual water consumption was recorded daily for the 28 days of the study.
# mouse lymphoma = format: cell-based
# Excerpt: 2) mouse lymphoma forward mutation assay;
# bone marrow = experiment: 28-day rat gavage study: Bone Marrow smears; format: in vivo, rat (Crl:CD®BR)
# Method: as §1, §2, §6
# [5] = tested on: chinese hamster ovary cells; format: cell-based
# Excerpt: 3) chromosomal aberrations in chinese hamster ovary cells;
# [6] = females, D-allose 3.1 g/kg/day, control 0.1
# [7] = males, D-allose 3.1 g/kg/day, control 0.2
# [8] = males, D-allose 5.1 g/kg/day, control 0.2
# [9] = acute oral, 5 grams/Kg, male rats
structure (smiles),measurement,setting,value
O=C[C@H](O)[C@H](O)[C@H](O)[C@H](O)CO [D-allose],findings at necropsy or on histopathological examination,major tissues and organs,no treatment related findings
same,mutagenic properties,Balb cells,no mutagenic properties
same,HPLC of urine from treated animals,[1],major peak corresponding to the spiked D-allose peak
same,undigested D-allose in the urine,[1],confirmed the presence of undigested D-allose in the urine
same,Cholesterol,"[2]; males, high dose (5.1 g/kg/day), vs. 51 mg/dl, significantly increased",72 mg/dL
same,pH,[2]; treated animals,decreased
same,Urine volumes,[2]; treated groups,decreased
same,urine specific gravity,[2]; treated groups,increased
same,mutagenic properties,human lymphocytes,no mutagenic properties
same,mutagenic properties,salmonella,no mutagenic properties
same,segmented neutrophils in some high dose group animals,"[3]; 5.1 g/Kg/day, 28 days",very low or not countable
same,platelets (result in words),"[3]; 28 days gavage, 3.1 and 5.1 g/Kg/day, both sexes",significant reduction in platelet formation; also recorded: dose-related reduction in numbers in both sexes; also recorded: dose-related reduction in platelet counts in both sexes
same,segmented neutrophils (result in words),"[3]; 28 days gavage, 3.1 and 5.1 g/Kg/day, rats",dose-related reduction in segmented neutrophil production; also recorded: marked decrease in segmented neutrophils which was dose-related; also recorded: reduction in segmented neutrophils
same,effect on the erythroid series,"[3]; 28 days gavage, rats",no apparent effect on the erythroid series
same,total leukocyte counts (result in words),"[3]; 28 days gavage, rats",reductions in total leukocyte counts
same,Segmented Neutrophils (mean),"[3]; females, D-allose 3.1 g/kg/day, control 1.8",0.5 × 10^3 /cmm
same,Band Neutrophils (mean),"[3]; females, D-allose 3.1 g/kg/day",0.0 × 10^3 /cmm
same,Basophils (mean),"[3]; females, D-allose 3.1 g/kg/day",0.0 × 10^3 /cmm
same,Other Cells (mean),"[3]; females, D-allose 3.1 g/kg/day",0.0 × 10^3 /cmm
same,Eosinophils (mean),[3]; [6],0.1 × 10^3 /cmm
same,Monocytes (mean),[3]; [6],0.1 × 10^3 /cmm
same,Erythrocytes (mean),"[3]; females, D-allose 3.1 g/kg/day, control 6.17",6.24 × 10^6 /cumm
same,Leukocytes (mean),"[3]; females, D-allose 3.1 g/kg/day",6.5 × 10^3 /cumm
same,Platelets (mean),"[3]; females, D-allose 3.1 g/kg/day, control 992",567 × 10^3 /cmm
same,Segmented Neutrophils (mean),"[3]; females, D-allose 5.1 g/kg/day, control 1.8",0.1 × 10^3 /cmm
same,Band Neutrophils (mean),"[3]; females, D-allose 5.1 g/kg/day",0.0 × 10^3 /cmm
same,Basophils (mean),"[3]; females, D-allose 5.1 g/kg/day",0.0 × 10^3 /cmm
same,Other Cells (mean),"[3]; females, D-allose 5.1 g/kg/day",0.0 × 10^3 /cmm
same,Eosinophils (mean),"[3]; females, D-allose 5.1 g/kg/day, control 0.1",0.1 × 10^3 /cmm
same,Erythrocytes (mean),"[3]; females, D-allose 5.1 g/kg/day, control 6.17",6.42 × 10^6 /cumm
same,Leukocytes (mean),"[3]; females, D-allose 5.1 g/kg/day",5.4 × 10^3 /cumm
same,Platelets (mean),"[3]; females, D-allose 5.1 g/kg/day, control 992",414 × 10^3 /cmm
same,Segmented Neutrophils (mean),"[3]; males, D-allose 3.1 g/kg/day, control 1.9",0.9 × 10^3 /cmm
same,Band Neutrophils (mean),"[3]; males, D-allose 3.1 g/kg/day",0.0 × 10^3 /cmm
same,Basophils (mean),"[3]; males, D-allose 3.1 g/kg/day",0.0 × 10^3 /cmm
same,Other Cells (mean),"[3]; males, D-allose 3.1 g/kg/day",0.0 × 10^3 /cmm
same,Eosinophils (mean),[3]; [7],0.1 × 10^3 /cmm
same,Monocytes (mean),[3]; [7],0.1 × 10^3 /cmm
same,Erythrocytes (mean),"[3]; males, D-allose 3.1 g/kg/day, control 6.85",7.10 × 10^6 /cumm
same,Lymphocytes (mean),"[3]; males, D-allose 3.1 g/kg/day",9.1 × 10^3 /cmm
same,Leukocytes (mean),"[3]; males, D-allose 3.1 g/kg/day",10.3 × 10^3 /cumm
same,Platelets (mean),"[3]; males, D-allose 3.1 g/kg/day, control 1072",546 × 10^3 /cmm
same,Segmented Neutrophils (mean),"[3]; males, D-allose 5.1 g/kg/day, control 1.9",0.2 × 10^3 /cmm
same,Band Neutrophils (mean),"[3]; males, D-allose 5.1 g/kg/day",0.0 × 10^3 /cmm
same,Basophils (mean),"[3]; males, D-allose 5.1 g/kg/day",0.0 × 10^3 /cmm
same,Other Cells (mean),"[3]; males, D-allose 5.1 g/kg/day",0.0 × 10^3 /cmm
same,Eosinophils (mean),[3]; [8],0.1 × 10^3 /cmm
same,Monocytes (mean),[3]; [8],0.1 × 10^3 /cmm
same,Erythrocytes (mean),"[3]; males, D-allose 5.1 g/kg/day, control 6.85",7.03 × 10^6 /cumm
same,Lymphocytes (mean),"[3]; males, D-allose 5.1 g/kg/day",5.6 × 10^3 /cmm
same,Leukocytes (mean),"[3]; males, D-allose 5.1 g/kg/day, significantly different from control",5.9 × 10^3 /cumm
same,Platelets (mean),"[3]; males, D-allose 5.1 g/kg/day, control 1072",320 × 10^3 /cmm
same,duration of suppressive effect,"[3]; rats, suppression of segmented neutrophil and platelet production",remains only so long as D-allose administration is continued
same,body weight changes,Male Rats; [9],no remarkable body weight changes
same,mortalities,Male Rats; [9],no mortalities
same,pharmacotoxic signs,Male Rats; [9],no pharmacotoxic signs
same,visible post-mortem abnormalities,"Male Rats; rat, in vivo, po",no visible post-mortem abnormalities
same,radioactivity retained in carcass,[4]; all groups,less than 1%
same,"excretion of radiolabel in the feces, of the recovered dose",[4]; corrected for recovery,6 to 9%
same,"urinary excretion, of the recovered dose","[4]; corrected for recovery, average, all three test groups",approximately 90%
same,differences in the rates or routes of excretion between treatment groups,[4]; radiolabeled D-allose,no substantial differences
same,radioactivity excretion routes,"[4]; radiolabeled D-allose, rats",most of the radioactivity was excreted in the urine with a small amount in the feces and lesser amounts in exhaled air and retained in the carcass
same,Radiation in exhaled air,"[4]; rat, in vivo",less than 0.5%
same,"effects on survival, appearance, behavior, body weights, food consumption or water consumption","[4]; rat, in vivo",no D-allose-related effects
same,water solubility,water solubility,high water solubility
same,effect on appearance or behavior (clinical signs),Crl:CD®BR rats,no definitive D-allose-related effect
same,mean food consumption values or mean food efficiency values,Crl:CD®BR rats,no D-allose-related effect
same,mean water consumption values,Crl:CD®BR rats,no D-allose-related effect
same,mutagenic properties,mouse lymphoma,no mutagenic properties
same,numbers of late stage neutrophils in bone marrow,"bone marrow; 3.1 and 5.1 g/kg/day, most striking in the high dose groups",decreased numbers of late stage neutrophils
same,mature myeloid cells in the bone marrow smears,"bone marrow; 28 days gavage, rats",marked reduction in mature myeloid cells
same,bone marrow erythroid series,bone marrow; all groups,well represented with a normal maturation sequence
same,cytological integrity of the cells in the neutrophil series,bone marrow; both dosage groups (3.1 and 5.1 g/kg/day),overall decrease in cytological integrity
same,Myeloid to erythroid ratios in bone marrows,"bone marrow; both treatment groups, usually, control approximately 1.6 to 3.0",less than 1.0
same,bone marrow cellularity and megakaryocytes,bone marrow; control and both treatment groups,very cellular with adequate numbers of active megakaryocytes in varying stages of maturity
same,mutagenic properties,[5],no mutagenic properties
